# System: cell lines derived from mouse pancreatic β-cells
# Assay: Insulin secretion into the culture medium measured by ELISA
# Format: cell-based
# Settings: low- and high-glucose Ringer's solutions; 1 μg/mL or 10 μg/mL (any concentration); stimulated for 30 minutes
# Procedure: Low- and high-glucose Ringer's solutions in the presence of 10 μg/mL pentadecanoic acid triglyceride were added in vitro to cell lines derived from mouse pancreatic β-cells. The cells were then stimulated for 30 minutes.
# Separately, as a control, ethanol at concentration of 0.1% (v/v) were added to the cells.
# Insulin secreted into the culture medium was measured by ELISA.
# Low- and high-glucose Ringer's solutions in the presence of 1 μg/mL or 10 μg/mL pentadecanoic acid (PA in the Figure) were added in vitro to cell lines derived from mouse pancreatic β-cells. The cells were then stimulated for 30 minutes.
structure (smiles),measurement,value
CCCCCCCCCCCCCCC(=O)O [pentadecanoic acid],effect on insulin secretion,no effect

# Source: US12485103B2, “Insulin secretion-promoting agent and blood sugar level improver using same, diabetes improver, and food” (REFINE HOLDINGS CO., LTD., priority 2019, dated 2025)
